Non-standard residues stand in square brackets, D forms with d. Residues, ends and D or L forms follow the SMILES beside them.
Key:
U-87MG cells = experiment: Apoptosis by acridine orange/ethidium bromide staining, U-87MG; assay type: cell-based, human; conditions: 3 h, mean ± SE (n=3), DMSO control 9.8 ± 5.3
Method: Figure 2 Mode of action of VDAC1-based peptides – interacting with- and detaching HK, releasing Cyto c, decreasing ATP level and inducing apoptosis A. Purified HK-II was fluorescently labeled using the NanoTemper protein-labeling Kit BLUE. […] Then, 3-5 μl of the samples were loaded into MST-grade glass capillaries and thermophoresis was measured using a Monolith-NT115 apparatus, as described in Materials and methods available online in Supplemental information. […] The final DMSO concentration in control and peptide-treated cells was 0.07%. Fixed cells were visualized using confocal microscopy (Olympus 1×81), as described in Materials and Methods available online in Supplemental information. Arrows indicate cells with diffusion of HK-I-GFP. C. […] Anti-GAPDH antibodies were used to verify the cytosolic extracts. The levels of HK in the supernatants were quantified and are presented as relative units. D. D-ΔN-Ter-Antp induces mitochondrial inner membrane depolarization analyzed as described in Materials and Methods available online in Supplemental information. U-87MG cells were incubated for 3 h with the indicated concentrations of D-ΔN-Ter-Antp or with FCCP (1 h, 25 μM). Cells then were analyzed for Δψ using TMRM. Δψ is presented as percentage of control. Results = mean ± SE (n=3) (*** p≤0.001, ****p ≤0.0001). […] Cellular ATP levels are presented as percentage of control. Results = mean ± SE (n=2 or 3) (* p≤0.05, ** p≤0.01). […] Release of Cyto c from the mitochondria was analyzed by immunostaining using anti-Cyto c antibodies and confocal microscopy (Olympus 1×81) as described in Materials and Methods available online in Supplemental information. Arrows indicate cells showing diffusion of Cyto c. […] Arrows and arrowheads indicate cells with membrane blebbing (early apoptotic state) and late apoptotic states, respectively. Quantification of apoptosis in control and peptide's treated cells are presented bellow the images. Results = mean ± SE (n=3) (** p≤0.01, *** p≤0.001, **** p≤0.0001).
Cells (6×10^5 /ml) were incubated in 500 μl serum-free medium with the peptide of interest for 6 h at 37°C in the presence of 5% CO2. The cells were then trypsinized, centrifuged (1500xg, 5 min), washed with PBS and analyzed for cell death using propidium iodide (PI) staining and flow cytometer (Beckton-Dickinson, San Jose, CA) and BD CellQuest Pro software. Apoptotic cell death was also analyzed by PI and annexin V-FITC staining, and by acridine orange and ethidium bromide staining and light microscopy (Olympus LX2-KSP).

Ki-67 = Ki-67 immunohistochemistry of xenograft tumors; assay type: in vivo, human U-87MG in nude mice; conditions: s.c. U-87MG tumors, 20 μM intra-tumoral, n=5
Method: Figure 3 VDAC1-based peptides inhibit tumor growth, cell proliferation, and invasion in a glioblastoma xenograft mice model A. Graphical representation of the xenograft experiment protocol used. U-87MG cells (3×10^6/mouse) were inoculated into male nude mice as described in Materials and Methods available online in Supplemental information. B, C. […] The calculated average tumor volumes are presented as means ± SE (n=5) (* p≤0.05, ** p≤0.01). C. The volume of peptide-treated tumors is presented as % of control for each indicated time. Results = mean ± SE (n=5) (* p≤0.05, ** […]). […] E. Quantitative analysis of Ki-67 positive cells. Results = mean ± SE (n=5) (*** p<0.001). […]
100% DMSO and then diluted 20-fold with sterile DDW into three groups (6 animals/group) and treated every to reach a concentration of 25 mg/ml in a final DMSO third day with DMSO (1.44%), Retro-Tf-D-LP4 (10 concentration of 5%. PLGA (50 mg) was dissolved in mg/kg) or Retro-Tf-D-LP4 (10 mg/kg) encapsulated by acetone (1 ml). […] Tumor volume was analyzed using VivoQuant 2.10 10 ml of aqueous solution containing 1% PVA (w/v). […]
(Calbiochem, UK). […] Band intensities were analyzed xenografts were injected 20 µl per tumor (2 points) every by densitometry using Multi Gauge software (Fujifilm) […]

SMILES | Apoptosis, % (U-87MG cells; 3 μM) | Apoptosis, % (U-87MG cells; 5 μM) | decrease in Ki-67-positive cell numbers (Ki-67)
CC[C@@H](C)[C@@H](NC(=O)[C@@H](CCCCN)NC(=O)[C@H](NC(=O)[C@@H](CCC(N)=O)NC(=O)[C@@H](CCCNC(=N)N)NC(=O)[C@@H](CC(C)C)NC(=O)CNC(=O)[C@@H](Cc1ccccc1)NC(=O)CNC(=O)[C@@H](Cc1ccc(O)cc1)NC(=O)CNC(=O)[C@@H](CCCCN)NC(=O)[C@H](NC(=O)[C@@H](Cc1ccccc1)NC(=O)[C@H](NC(=O)[C@@H](CC(=O)O)NC(=O)[C@H](N)CCCNC(=N)N)C(C)C)[C@H](C)O)[C@H](C)CC)C(=O)N[C@H](Cc1c[nH]c2ccccc12)C(=O)N[C@H](Cc1ccccc1)C(=O)N[C@H](CCC(N)=O)C(=O)N[C@H](CC(N)=O)C(=O)N[C@H](CCCNC(=N)N)C(=O)N[C@H](CCCNC(=N)N)C(=O)N[C@H](CCSC)C(=O)N[C@H](CCCCN)C(=O)N[C@H](Cc1c[nH]c2ccccc12)C(=O)N[C@H](CCCCN)C(=O)N[C@H](CCCCN)C(=O)O [D-ΔN-Ter-Antp] (H-[dR][dD][dV][dF][dT][dK]G[dY]G[dF]G[dL][dR][dQ][dI][dK][dI][dW][dF][dQ][dN][dR][dR][dM][dK][dW][dK][dK]-OH; N-terminus and C-terminus assumed) | 45.4 ± 2.6% | 63.4 ± 3.8% | about 45%
CC[C@H](C)[C@H](NC(=O)[C@H](C)NC(=O)[C@@H](N)Cc1c[nH]cn1)C(=O)N[C@@H](Cc1ccc(O)cc1)C(=O)N1CCC[C@H]1C(=O)N[C@@H](CCCNC(=N)N)C(=O)N[C@@H](Cc1c[nH]cn1)C(=O)N[C@@H](CO)C(=O)N[C@@H](Cc1c[nH]c2ccccc12)C(=O)N[C@H](C(=O)N[C@@H](Cc1c[nH]c2ccccc12)C(=O)N[C@@H](CCC(=O)O)C(=O)N[C@H](CCCCN)C(=O)N[C@H](CCCCN)C(=O)N[C@H](CC(C)C)C(=O)N[C@H](CCC(=O)O)C(=O)N[C@@H](C(=O)N[C@H](C)C(=O)N[C@@H](C(=O)N[C@H](CC(N)=O)C(=O)N[C@H](CC(C)C)C(=O)N[C@H](C)C(=O)N[C@H](Cc1c[nH]c2ccccc12)C(=O)N[C@@H](C(=O)N[C@H](C)C(=O)NCC(=O)N[C@H](CC(N)=O)C(=O)N[C@H](CO)C(=O)N[C@H](CC(N)=O)C(=O)N[C@@H](CCCCN)C(=O)N[C@@H](Cc1c[nH]c2ccccc12)C(=O)N[C@H](C(=O)N[C@@H](Cc1c[nH]c2ccccc12)C(=O)N[C@@H](CCCCN)C(=O)O)[C@@H](C)O)[C@H](C)O)C(C)C)[C@H](C)O)[C@@H](C)O [Tf-D-LP4] | 55.8 ± 1.0% | 73.9 ± 5.7% | about 45%

From paper PMC5458211, “Mitochondrial VDAC1-based peptides: Attacking oncogenic properties in glioblastoma” (Oncotarget, 2017)
